Laboratory results: patent US20250099431A1, “GLP-1R MODULATING COMPOUNDS” (priority 2020, published 2025)

What was measured:
GLP-1R = GLP-1R (Homo sapiens (Human), UniProt P43220); assay: GLP-1R activation: cAMP increase in CHO cells stably expressing GLP-1R; format: cell-based; conditions: cAMP increase, 10 point dose response, 30 minutes incubation at 37° C., read-out: EC50
In short: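 CHO cells stably expressing GLP-1R were incubated 1 h at 37 °C in medium with 1% BSA, then exposed to compound in a 10-point dose response for 30 min at 37 °C. cAMP rise was detected by HTRF (Gs Dynamic kit). EC50 came from a sigmoidal fit of response against log agonist concentration.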

[1] = Microsomal stability (liver microsomal assay, mixed cofactors); predicted hepatic clearance; format: in vitro ADME; conditions: liver microsomes 1.0 mg protein/mL (+UDPGA +NADPH), 1 μM analyte, 37° C.; scaled with human liver weight and hepatic blood flow 1.3 L/hr/kg
In short: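 Compound at 1 μM with human or rat pooled liver microsomes, alamethicin-treated, pH 7.4 phosphate, NADPH-regenerating plus UDPGA cofactors, 37° C, sampled 0–70 min. Parent/internal standard ratio by RapidFire QToF MS; half-life from initial log-linear decay, scaled to intrinsic and predicted hepatic clearance and hepatic extraction.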

GLP-1R, sequence (P43220 24-463): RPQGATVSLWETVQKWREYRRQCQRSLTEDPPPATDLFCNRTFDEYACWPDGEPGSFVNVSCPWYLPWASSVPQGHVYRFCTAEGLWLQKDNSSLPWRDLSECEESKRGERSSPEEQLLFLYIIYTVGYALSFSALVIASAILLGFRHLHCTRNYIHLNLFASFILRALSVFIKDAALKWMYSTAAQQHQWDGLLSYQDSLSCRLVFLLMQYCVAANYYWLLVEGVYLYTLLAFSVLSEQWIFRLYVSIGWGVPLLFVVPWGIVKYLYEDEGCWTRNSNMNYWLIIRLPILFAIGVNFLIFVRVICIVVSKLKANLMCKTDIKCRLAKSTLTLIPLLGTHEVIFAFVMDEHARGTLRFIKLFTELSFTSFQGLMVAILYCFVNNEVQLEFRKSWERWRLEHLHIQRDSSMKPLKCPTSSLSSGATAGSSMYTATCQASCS

Row | SMILES | EC50 (GLP-1R) [nM] | Predicted Hepatic Clearance (Pred. Cl.) [1] [mL/min/kg]
1 | COCCn1c(Cc2c(F)cc(-c3cccc4c3OC(c3ccc(C#N)cc3F)O4)cc2F)nc2ccc(C(=O)O)cc21 (single isomer, unassigned) [Example 37, 2-(4-(2-(4-cyano-2-fluorophenyl)benzo [d][1,3]dioxol-4-yl)-2,6-difluorobenzyl)-1-(2-methoxyethyl)-1H-benzo[d]imidazole-6-carboxylic acid] | 1000 | 3.83
2 | N#Cc1ccc(C2Oc3cccc(-c4cc(F)c(Cc5nc6ccc(C(=O)O)cc6n5C[C@@H]5CCO5)c(F)c4)c3O2)c(F)c1 (single isomer, unassigned) [Example 41] | 438 | 2.83
3 | CC1(c2ccc(Cl)cn2)Oc2cccc(-c3cc(F)c(Cc4nc5ccc(C(=O)O)cc5n4C[C@@H]4CCO4)cc3F)c2O1 (stereo partly drawn) [Example 29, 2-(4-(2-(5-chloropyridin-2-yl)-2-methylbenzo[d][1, 3]dioxol-4-yl)-2,5-difluorobenzyl)-1-(((S)-oxetan-2-yl)methyl)-1H-benzo[d]imidazole-6-carboxylic acid] | 0.076 | 4.67
4 | COCCn1c(Cc2ccc(-c3cccc4c3OC(c3ccc(C#N)cc3F)O4)cc2F)nc2ccc(C(=O)O)cc21 (single isomer, unassigned) [Example 33, 2-(4-(2-(4-cyano-2-fluorophenyl)benzo [d][1,3]dioxol-4-yl)-2-fluorobenzyl)-1-(2-methoxyethyl)-1H-benzo[d]imidazole-6-carboxylic acid] | 53 | 2.67
5 | CC1(c2ccc(Cl)cc2F)Oc2cccc(-c3cc(F)c(Cc4nc5ccc(C(=O)O)cc5n4C[C@@H]4CCO4)c(F)c3)c2O1 (stereo partly drawn) [Example 22, 2-(4-(2-(4-chloro-2-fluorophenyl)-2-methylbenzo[d][1, 3]dioxol-4-yl)-2,6-difluorobenzyl)-1-(((S)-oxetan-2-yl)methyl)-1H-benzo[d]imidazole-6-carboxylic acid] | 0.024 | <1.83
6 | CC1(c2ccc(C#N)cc2F)Oc2cccc(-c3cc(F)c(Cc4nc5ccc(C(=O)O)cc5n4C[C@@H]4CCO4)c(F)c3)c2O1 (single isomer, unassigned) [Example 93] | 0.52 | 6
7 | CC1(c2ccc(Cl)cc2F)Oc2cccc(-c3ccc(Cc4nc5ccc(C(=O)O)cc5n4CC4(n5ccnn5)CC4)c(F)c3)c2O1 (stereo not drawn) [Example 109, 1-((1-(1H-1,2,3-triazol-1-yl)cyclopropyl)methyl)-2-(4-(2-(4-chloro-2-fluorophenyl)-2-methylbenzo[d][1, 3]dioxol-4-yl)-2-fluorobenzyl)-1H-benzo[d]imidazole-6-carboxylic acid] | 9.1 | 2.5
8 | CC(=O)N1CC[C@@H]1Cn1c(Cc2ccc(-c3cccc4c3OC(C)(c3ccc(Cl)cc3F)O4)cc2F)nc2ccc(C(=O)O)cc21 (stereo partly drawn) [Example 108, 3-[[(2R)-1-acetylazetidin-2-yl]methyl]-2-[[4-[2-(4-chloro-2-fluoro-phenyl)-2-methyl-1,3-benzodioxol-4-yl]-2-fluoro-phenyl]methyl] benzimidazole-5-carboxylic acid] | 4.3 | 2
9 | COCCn1c(Cc2c(F)cc(-c3cccc4c3O[C@](C)(c3ccc(Cl)cc3F)O4)cc2F)nc2ccc(C(=O)O)cc21 [Example 103, 2-(4-(2-(4-chloro-2-fluorophenyl)-2-methylbenzo[d][1, 3]dioxol-4-yl)-2,6-difluorobenzyl)-1-(2-methoxyethyl)-1H-benzo[d]imidazole-6-carboxylic acid] | 8.2 | 4.17
